# Experimental data taken from ChEMBL document CHEMBL3885861, “Open TG-GATES”.
# Organism: Rattus norvegicus
# Test: Open TG-GATES - Regimen: Single
# Format: toxicity, organism-based, Sprague-Dawley
# Design: regimen Single, gender Male, age 6 weeks
# Conditions: in vivo, po, 3 mg/kg, route gavage, dose level Middle; for APTT / Bas / Eos / Fbg / Hb / Ht / Lym / MCH / MCHC / MCV / Mono / PT / Plat / RBC / Ret / WBC: tissue Blood; for KIDNEY_L / KIDNEY_R / KIDNEY_TOTAL: tissue Kidney; for LIVER: tissue Liver
smiles,measurement,setting,value
C#C[C@]1(O)CC[C@H]2[C@@H]3CCc4cc(O)ccc4[C@H]3CC[C@@]21C [ETHINYL ESTRADIOL],TERMINAL_BW,3 h,198.2 g
same,APTT,3 h,15.8 s
same,Bas,3 h,0%
same,Eos,3 h,1%
same,Fbg,3 h,257.8 mg/dL
same,Hb,3 h,12.9 g/dL
same,Ht,3 h,39.4%
same,Lym,3 h,75.8%
same,MCH,3 h,21.4 pg
same,MCHC,3 h,32.9%
same,MCV,3 h,65 fL
same,Mono,3 h,3.6%
same,PT,3 h,12.2 s
same,Plat,3 h,110.2 x10_4/uL
same,RBC,3 h,607 x10_4/ul
same,Ret,3 h,10.6%
same,WBC,3 h,86.9 x10_2/uL
same,KIDNEY_L,3 h,0.8 g
same,KIDNEY_R,3 h,0.8 g
same,KIDNEY_TOTAL,3 h,1.7 g
same,LIVER,3 h,8.5 g
same,ALP,"3 h, tissue Plasma",1631.6 IU/L
same,ALT,"3 h, tissue Plasma",47.8 IU/L
same,AST,"3 h, tissue Plasma",80.2 IU/L
same,BUN,"3 h, tissue Plasma",10.2 mg/dL
same,CRE,"3 h, tissue Plasma",0.2 mg/dL
same,Cl,"3 h, tissue Plasma",106.8 meq/L
same,GLC,"3 h, tissue Plasma",183.4 mg/dL
same,IP,"3 h, tissue Plasma",9.2 mg/dL
same,K,"3 h, tissue Plasma",3.8 meq/L
same,LDH,"3 h, tissue Plasma",49.2 IU/L
same,PL,"3 h, tissue Plasma",142.6 mg/dL
same,RALB,"3 h, tissue Plasma",2.5 g/dL
same,TBIL,"3 h, tissue Plasma",0.038 mg/dL
same,TC,"3 h, tissue Plasma",75.4 mg/dL
same,TP,"3 h, tissue Plasma",5.4 g/dL
same,gamma-GTP,"3 h, tissue Plasma",1.2 IU/L
same,TERMINAL_BW,6 h,195.3 g
same,APTT,6 h,14.7 s
same,Bas,6 h,0.2%
same,Eos,6 h,0.8%
same,Fbg,6 h,292.8 mg/dL
same,Hb,6 h,13 g/dL
same,Ht,6 h,38.9%
same,Lym,6 h,69.4%
same,MCH,6 h,21.9 pg
same,MCHC,6 h,33.4%
same,MCV,6 h,65.5 fL
same,PT,6 h,12.2 s
same,Plat,6 h,115.2 x10_4/uL
same,RBC,6 h,594.2 x10_4/ul
same,Ret,6 h,9.8%
same,WBC,6 h,98.2 x10_2/uL
same,KIDNEY_L,6 h,0.9 g
same,KIDNEY_R,6 h,0.9 g
same,KIDNEY_TOTAL,6 h,1.7 g
same,LIVER,6 h,8.1 g
same,ALP,"6 h, tissue Plasma",1993.6 IU/L
same,ALT,"6 h, tissue Plasma",54.6 IU/L
same,AST,"6 h, tissue Plasma",106.2 IU/L
same,BUN,"6 h, tissue Plasma",6.6 mg/dL
same,CRE,"6 h, tissue Plasma",0.2 mg/dL
same,Ca,"6 h, tissue Plasma",10.6 mg/dL
same,Cl,"6 h, tissue Plasma",110 meq/L
same,DBIL,"6 h, tissue Plasma",0.012 mg/dL
same,IP,"6 h, tissue Plasma",10.4 mg/dL
same,LDH,"6 h, tissue Plasma",44.6 IU/L
same,Na,"6 h, tissue Plasma",144.4 meq/L
same,PL,"6 h, tissue Plasma",106.4 mg/dL
same,RALB,"6 h, tissue Plasma",2.5 g/dL
same,TBIL,"6 h, tissue Plasma",0.038 mg/dL
same,TC,"6 h, tissue Plasma",51.8 mg/dL
same,TP,"6 h, tissue Plasma",5.4 g/dL
same,gamma-GTP,"6 h, tissue Plasma",1.2 IU/L
same,TERMINAL_BW,9 h,196.1 g
same,APTT,9 h,15.7 s
same,Bas,9 h,0%
same,Eos,9 h,1%
same,Fbg,9 h,261.6 mg/dL
same,Hb,9 h,12.8 g/dL
same,Ht,9 h,37.6%
same,Lym,9 h,72%
same,MCH,9 h,22.3 pg
same,MCHC,9 h,33.9%
same,MCV,9 h,65.8 fL
same,Mono,9 h,3%
same,PT,9 h,12.7 s
same,Plat,9 h,117.1 x10_4/uL
same,RBC,9 h,572.4 x10_4/ul
same,Ret,9 h,10.2%
same,WBC,9 h,81.1 x10_2/uL
same,KIDNEY_L,9 h,0.8 g
same,KIDNEY_R,9 h,0.8 g
same,KIDNEY_TOTAL,9 h,1.7 g
same,LIVER,9 h,7.6 g
same,ALP,"9 h, tissue Plasma",1530.6 IU/L
same,ALT,"9 h, tissue Plasma",36.4 IU/L
same,AST,"9 h, tissue Plasma",72 IU/L
same,BUN,"9 h, tissue Plasma",9 mg/dL
same,CRE,"9 h, tissue Plasma",0.2 mg/dL
same,Ca,"9 h, tissue Plasma",10.4 mg/dL
same,Cl,"9 h, tissue Plasma",109.2 meq/L
same,DBIL,"9 h, tissue Plasma",0.012 mg/dL
same,IP,"9 h, tissue Plasma",10.4 mg/dL
same,K,"9 h, tissue Plasma",3.7 meq/L
same,LDH,"9 h, tissue Plasma",39.6 IU/L
same,Na,"9 h, tissue Plasma",145.4 meq/L
same,PL,"9 h, tissue Plasma",95.4 mg/dL
same,RALB,"9 h, tissue Plasma",2.6 g/dL
same,TBIL,"9 h, tissue Plasma",0.048 mg/dL
same,TC,"9 h, tissue Plasma",45.4 mg/dL
same,TP,"9 h, tissue Plasma",5.3 g/dL
same,gamma-GTP,"9 h, tissue Plasma",1 IU/L
same,TERMINAL_BW,24 h,200 g
same,APTT,24 h,18.1 s
same,Bas,24 h,0%
same,Eos,24 h,1%
same,Fbg,24 h,220.8 mg/dL
same,Ht,24 h,39%
same,Lym,24 h,77.8%
same,MCH,24 h,22 pg
same,MCHC,24 h,34%
same,MCV,24 h,64.6 fL
same,Mono,24 h,4%
same,PT,24 h,13.4 s
same,Plat,24 h,110.4 x10_4/uL
same,RBC,24 h,604.4 x10_4/ul
same,Ret,24 h,8.1%
same,WBC,24 h,92.7 x10_2/uL
same,KIDNEY_L,24 h,0.9 g
same,KIDNEY_R,24 h,0.9 g
same,KIDNEY_TOTAL,24 h,1.8 g
same,LIVER,24 h,9.6 g
same,ALP,"24 h, tissue Plasma",2004.2 IU/L
same,ALT,"24 h, tissue Plasma",43 IU/L
same,AST,"24 h, tissue Plasma",70.6 IU/L
same,BUN,"24 h, tissue Plasma",10.8 mg/dL
same,CRE,"24 h, tissue Plasma",0.2 mg/dL
same,Ca,"24 h, tissue Plasma",10.8 mg/dL
same,Cl,"24 h, tissue Plasma",106.4 meq/L
same,DBIL,"24 h, tissue Plasma",0.024 mg/dL
same,IP,"24 h, tissue Plasma",7 mg/dL
same,K,"24 h, tissue Plasma",4.3 meq/L
same,LDH,"24 h, tissue Plasma",62.8 IU/L
same,PL,"24 h, tissue Plasma",106.4 mg/dL
same,RALB,"24 h, tissue Plasma",2.5 g/dL
same,TBIL,"24 h, tissue Plasma",0.042 mg/dL
same,TC,"24 h, tissue Plasma",39 mg/dL
same,TP,"24 h, tissue Plasma",5.3 g/dL
